Measurements taken from article PMC8699473, “An Easily Expandable Multi-Drug LC-MS Assay for the Simultaneous Quantification of 57 Oral Antitumor Drugs in Human Plasma” (Cancers, 2021).

Experiment: Long-term stability in spiked pooled human plasma

Compound | Long-term stability, 1 month, -80°C Accuracy [%] (validation standard 2xLLOV) | Long-term stability, 2 month, -20°C Accuracy [%] (validation standard 2xLLOV) | Long-term stability, 2 month, -80°C Accuracy [%] (validation standard 2xLLOV) | Long-term stability, 3 month, -80°C Accuracy [%] (validation standard 2xLLOV) | Long-term stability, 6 weeks, 4°C, without daylight Accuracy [%] (validation standard 2xLLOV) | Long-term stability, 1 month, -20°C Accuracy [%] (validation standard LLOV) | Long-term stability, 1 month, -80°C Accuracy [%] (validation standard LLOV) | Long-term stability, 2 month, -20°C Accuracy [%] (validation standard LLOV) | Long-term stability, 2 month, -80°C Accuracy [%] (validation standard LLOV) | Long-term stability, 3 month, -80°C Accuracy [%] (validation standard LLOV) | Long-term stability, 6 weeks, 4°C, without daylight Accuracy [%] (validation standard LLOV) | Long-term stability, 1 month, -80°C Accuracy [%] (validation standard MOV) | Long-term stability, 2 month, -20°C Accuracy [%] (validation standard MOV) | Long-term stability, 2 month, -80°C Accuracy [%] (validation standard MOV) | Long-term stability, 3 month, -80°C Accuracy [%] (validation standard MOV) | Long-term stability, 6 weeks, 4°C, without daylight Accuracy [%] (validation standard MOV) | Long-term stability, 1 month, -20°C Accuracy [%] (validation standard ULOV) | Long-term stability, 1 month, -80°C Accuracy [%] (validation standard ULOV) | Long-term stability, 2 month, -20°C Accuracy [%] (validation standard ULOV) | Long-term stability, 2 month, -80°C Accuracy [%] (validation standard ULOV) | also measured
CNC(=O)c1cc(Oc2ccc(NC(=O)Nc3ccc(Cl)c(C(F)(F)F)c3)c(F)c2)ccn1 [Regorafenib] | 104.0% | 105.6% | 104.3% | 103.7% | 80.6% | 105.4% | 102.9% | 106.3% | 104.7% | 105.1% | 79.3% | 106.3% | 105.8% | 112.2% | 100.4% | 101.0% | 104.7% | 103.8% | 108.5% | 107.0% | Long-term stability, 1 month, -20°C Accuracy [%] (validation standard 2xLLOV): 101.2%; Long-term stability, 3 month, -20°C Accuracy [%] (validation standard 2xLLOV): 90.7%; Long-term stability, 3 month, -20°C Accuracy [%] (validation standard LLOV): 94.0%; Long-term stability, 1 month, -20°C Accuracy [%] (validation standard MOV): 101.6%; Long-term stability, 3 month, -20°C Accuracy [%] (validation standard MOV): 97.1%; Long-term stability, 3 month, -20°C Accuracy [%] (validation standard ULOV): 92.9%; Long-term stability, 3 month, -80°C Accuracy [%] (validation standard ULOV): 103.1%; Long-term stability, 6 weeks, 4°C, without daylight Accuracy [%] (validation standard ULOV): 95.5%
CN(C)C(=O)c1cc2cnc(Nc3ccc(N4CCNCC4)cn3)nc2n1C1CCCC1 [Ribociclib] | 98.5% | 109.0% | 112.4% | 106.4% | 96.4% | 88.0% | 83.5% | 92.7% | 94.7% | 90.7% | 76.6% | 101.3% | 108.6% | 108.1% | 104.3% | 107.4% | 91.9% | 90.7% | 98.7% | 98.8% | Long-term stability, 3 month, -80°C Accuracy [%] (validation standard ULOV): 92.7%; Long-term stability, 6 weeks, 4°C, without daylight Accuracy [%] (validation standard ULOV): 96.3%
N#CC[C@H](C1CCCC1)n1cc(-c2ncnc3[nH]ccc23)cn1 [Ruxolitinib] | 93.0% | 97.7% | 100.0% | 99.4% | 93.8% | 95.6% | 94.6% | 98.6% | 99.8% | 96.5% | 97.9% | 94.2% | 97.7% | 96.8% | 94.6% | 97.6% | 95.3% | 91.6% | 95.3% | 95.8% | Long-term stability, 1 month, -20°C Accuracy [%] (validation standard 2xLLOV): 101.5%; Long-term stability, 3 month, -20°C Accuracy [%] (validation standard 2xLLOV): 97.5%; Long-term stability, 3 month, -20°C Accuracy [%] (validation standard LLOV): 101.8%; Long-term stability, 1 month, -20°C Accuracy [%] (validation standard MOV): 95.8%; Long-term stability, 3 month, -20°C Accuracy [%] (validation standard MOV): 97.0%; Long-term stability, 3 month, -20°C Accuracy [%] (validation standard ULOV): 95.4%; Long-term stability, 3 month, -80°C Accuracy [%] (validation standard ULOV): 94.5%; Long-term stability, 6 weeks, 4°C, without daylight Accuracy [%] (validation standard ULOV): 96.6%
Cc1c(C(=O)Nc2ccc(N3C[C@@H](C)O[C@@H](C)C3)nc2)cccc1-c1ccc(OC(F)(F)F)cc1 [Sonidegib] | 108.9% | 111.0% | 107.0% | 104.6% | 91.2% | 109.9% | 108.6% | 105.8% | 104.4% | 109.9% | 89.3% | 108.0% | 114.5% | 119.3% | 99.2% | 106.1% | 106.5% | 105.4% | 122.3% | 122.3% | Long-term stability, 1 month, -20°C Accuracy [%] (validation standard 2xLLOV): 106.2%; Long-term stability, 3 month, -20°C Accuracy [%] (validation standard 2xLLOV): 96.1%; Long-term stability, 3 month, -20°C Accuracy [%] (validation standard LLOV): 103.1%; Long-term stability, 1 month, -20°C Accuracy [%] (validation standard MOV): 104.9%; Long-term stability, 3 month, -20°C Accuracy [%] (validation standard MOV): 95.1%; Long-term stability, 3 month, -20°C Accuracy [%] (validation standard ULOV): 89.3%; Long-term stability, 3 month, -80°C Accuracy [%] (validation standard ULOV): 100.0%; Long-term stability, 6 weeks, 4°C, without daylight Accuracy [%] (validation standard ULOV): 100.7%
CNC(=O)c1cc(Oc2ccc(NC(=O)Nc3ccc(Cl)c(C(F)(F)F)c3)cc2)ccn1 [Sorafenib] | 110.1% | 109.9% | 106.2% | 108.7% | 74.5% | 106.1% | 102.7% | 109.0% | 106.5% | 111.4% | 71.1% | 108.3% | 112.2% | 118.4% | 100.4% | 106.5% | 104.5% | 103.5% | 116.0% | 114.3% | Long-term stability, 1 month, -20°C Accuracy [%] (validation standard 2xLLOV): 103.7%; Long-term stability, 3 month, -20°C Accuracy [%] (validation standard 2xLLOV): 94.5%; Long-term stability, 3 month, -20°C Accuracy [%] (validation standard LLOV): 100.5%; Long-term stability, 1 month, -20°C Accuracy [%] (validation standard MOV): 106.1%; Long-term stability, 3 month, -20°C Accuracy [%] (validation standard MOV): 94.0%; Long-term stability, 3 month, -20°C Accuracy [%] (validation standard ULOV): 90.5%; Long-term stability, 3 month, -80°C Accuracy [%] (validation standard ULOV): 102.3%; Long-term stability, 6 weeks, 4°C, without daylight Accuracy [%] (validation standard ULOV): 99.7%
CCN(CC)CCNC(=O)c1c(C)[nH]c(/C=C2\C(=O)Nc3ccc(F)cc32)c1C [Sunitinib] | 108.5% | 108.9% | 108.9% | 131.1% | 85.9% | 132.8% | 122.7% | 114.3% | 112.8% | 135.5% | 96.2% | 107.0% | 106.3% | 102.8% | 120.9% | 109.9% | 119.5% | 109.0% | 109.7% | 108.8% | Long-term stability, 1 month, -20°C Accuracy [%] (validation standard 2xLLOV): 121.2%; Long-term stability, 3 month, -20°C Accuracy [%] (validation standard 2xLLOV): 123.9%; Long-term stability, 3 month, -20°C Accuracy [%] (validation standard LLOV): 130.7%; Long-term stability, 1 month, -20°C Accuracy [%] (validation standard MOV): 118.5%; Long-term stability, 3 month, -20°C Accuracy [%] (validation standard MOV): 123.6%; Long-term stability, 3 month, -20°C Accuracy [%] (validation standard ULOV): 122.5%; Long-term stability, 3 month, -80°C Accuracy [%] (validation standard ULOV): 118.4%; Long-term stability, 6 weeks, 4°C, without daylight Accuracy [%] (validation standard ULOV): 105.4%
